We go through three compounds from patent US20080293969A1, “18F-Labeled Daa Analogues and Method of Labeling These Analogues as Positron Emission Tomography (Pet) Tracers For Imaging Peripheral Benzodiazepine Receptors” (GE Healthcare Limited, priority 2005, published 2008).

The target in one series is PBR (Homo sapiens, UniProt P30536). The conditions noted are these: reported, Drug Dev. Research, 2001, vol. 52, 475-484; cited from earlier work.
A further series can be described thus: Biodistribution in rats. The series is classed as in vivo, male Sprague-Dawley rats. The following applies: 10 MBq/kg tail vein, 15 min post-injection. The procedure: SAN1 at 10 MBq/kg was injected in the tail vein of male Sprague-Dawley rats. Rats were sacrificed 15 min post-injection and blood, cortex, olfactory bulb, adrenal and cerebellum were dissected, weighed and radioactivity in the organs was measured. Uptake in organs was expressed as Standardized Uptake Value, SUV. The scope of this experiment was to assess blood brain penetration of the radiolabeled compound as well as its distribution to organs known to express PBR, e.g. adrenal medulla. […] Additionally, we observed a large uptake of SAN1 in adrenal which is the peripheral organ with the highest density of PBRs. Biodistribution data from 4 rats was summarized and is shown in the diagram below, error bars represent the SEM.

Series [1] deals with T1, peripheral benzodiazepine receptors (PBR) (Sus scrofa, UniProt Q6UN27).
T1 construct: from tissue; host or cells: pig adrenal cryosections (rat heart and rat brain sections were run in the same assay)
T1 sequence (Q6UN27 1-169): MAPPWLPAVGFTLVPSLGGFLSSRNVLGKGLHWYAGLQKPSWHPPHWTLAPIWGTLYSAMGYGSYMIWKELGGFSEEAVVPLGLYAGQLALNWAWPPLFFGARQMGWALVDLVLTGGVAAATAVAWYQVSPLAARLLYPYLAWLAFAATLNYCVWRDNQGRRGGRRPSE
The series can be described thus: Frozen section autoradiography. The series is classed as binding, pig. The procedure: (§1) Frozen Section Autoradiography.
(§2) Cryosections of pig adrenal, rat heart and rat brain were incubated with [^18F] labeled N-(2,5-dimethoxybenzyl)-3-fluoro-N-(5-fluoro-2-phenoxy-phenyl)propanamide (SAN1) for 40 min at R.T. in 50 mM Tris-HCl, pH 7.4, in the presence or absence of 1 μM PK11195 (selective PBR ligand). Thereafter, sections were washed in buffer 3×1 min, dried in a heated oven (37° C.) and exposed to phosphor imaging plates for 240 min. Assessment of the selectivity of the radioligand for PBRs was assessed by comparing the regional distribution of radioactivity with known distribution of PBRs in tissue. Another parameter investigated was the blocking effect in sections which were co-incubated with an excess of PK11195.

The test system of series [2] is peripheral benzodiazepine receptors (PBR). Briefly: Frozen section autoradiography. The following applies: frozen section autoradiography. Format: binding, pig. The procedure:
as §1, §2

Sequence of PBR (P30536 whole entry, species assumed): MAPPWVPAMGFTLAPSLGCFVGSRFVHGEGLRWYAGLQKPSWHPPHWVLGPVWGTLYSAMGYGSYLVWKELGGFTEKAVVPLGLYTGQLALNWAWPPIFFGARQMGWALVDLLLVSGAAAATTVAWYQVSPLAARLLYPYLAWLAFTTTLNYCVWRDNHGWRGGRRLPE

Regarding `CC(=O)N(Cc1ccccc1OC(C)C)c1ccc(Cl)cc1Oc1ccccc1` [DAA1097, N-(4-chloro-2-phenoxyphenyl)-N-(2-isopropoxybenzyl)-acetamide], the “affinity and selectivity for PBR” value at PBR is listed as “high affinity selective ligands”.

`COc1ccc(OC)c(CN(C(C)=O)c2cc(F)ccc2Oc2ccccc2)c1` [DAA1106, N-(2,5-dimethoxybenzyl)-N-(5-fluoro-2-phenoxyphenyl)acetamide]: the “affinity and selectivity for PBR” value on PBR is “high affinity selective ligands”.

As for `COc1ccc(OC)c(CN(C(=O)CC[18F])c2cc(F)ccc2Oc2ccccc2)c1` [SAN1, [^18F] labeled N-(2,5-dimethoxybenzyl)-3-fluoro-N-(5-fluoro-2-phenoxy-phenyl)propanamide], the “brain to blood ratio” value in the series “Biodistribution in rats” (all regions analyzed (cortex, olfactory bulb, cerebellum), particularly olfactory bulb) is on record as “above 1”. The uptake in adrenal entry in “Biodistribution in rats” (uptake expressed as SUV) is recorded as “large uptake”. Moreover, in series [1] (co-incubated with 1 μM PK11195), the “blocking of adrenal medulla uptake by an excess of PK11195” value is reported as “completely blocked”. The “uptake in adrenal medulla” value in series [1] (cryosections of pig adrenal, incubated 40 min at R.T., 50 mM Tris-HCl pH 7.4) is “high uptake”. Moreover, the “binding and specificity for PBR-rich tissues” value in series [2] is “good binding and specificity”.
